Test results as given in patent US11040968B2, “Pyridine derivative as ASK1 inhibitor and preparation method and use thereof” (FUJIAN COSUNTER PHARMACEUTICAL CO., LTD., priority 2017, dated 2021).
Where two headings read alike, the source gives them in different places.

Columns and labels:
[1] = target: ASK1/MAP3K5 (Homo sapiens (Human), UniProt Q99683); assay: Enzyme activity: ASK1 kinase 33P-ATP filter-binding assay with MBP substrate; type: biochemical
Description: Experimental Example 1: Enzyme Activity
Primary reaction buffer solution: 20 mM Hepes (pH 7.5), 10 mM MgCl2, 1 mM EGTA, 0.02% Brij35, 0.02 mg/ml BSA, 0.1 mM Na3VO4, 2 mM DTT, 1% DMSO
Treatment of the Compound:
The tested compounds were formulated into a 10 mM stock solution in DMSO, diluted in 3-fold gradient for a total of 10 concentrations, and placed in a 384-well plate (Cyclic Olefin Copolymer LDV Echo®).
Kinase Name: ASK1/MAP3K5 (Invitrogen, Carlsbad, Calif.)
Type: Recombinant Human Full Length Protein, GST-tagged
Final reaction concentration of the enzyme: 20 nM
Substrate: Myelin basic protein, MBP (Active Motif, Carlsbad, Calif.)
Final reaction concentration of the substrate: 20 μM
1. The substrate was dissolved in a freshly prepared primary reaction buffer solution,
2. The desired coenzyme factor was added to the above substrate solution,
3. The kinase was added to the substrate solution and mix gently,
4. The solution tested compound in DMSO was added to the kinase reaction solution and incubated at room temperature for 20 minutes.
5. The reaction was initiated by adding ^33P-ATP (specific activity 10 μCi/μL) to the reaction solution.
6. Incubated at room temperature for 2 hours.
7. A small portion of the reactants were placed onto the P-81 ion exchange filter paper.
8. The filter paper was washed three times with 0.75% phosphate buffer to wash away unbound phosphate, and then dried.
9. The radioactivity remaining on the filter paper was determined,
10. The data for the kinase activity was expressed as the ratio of the kinase activity remaining in the test sample to the kinase activity in the vehicle (DMSO).
11. IC50 values and curve fitting were collected by Prism (GraphPad software).

[2] = Pharmacokinetic characteristics study in mice (plasma, LC-MS/MS); type: in vivo; details: C57BL/6 male mice
Description: Experimental Example 2: Pharmacokinetic Characteristics Study
C57BL/6 male mice were used in this study. The drug concentration in the plasma of mice subjected to intravenous or oral administration of the test compound at different time points were quantitatively determine by LC/MS/MS method, respectively, in order to evaluate the pharmacokinetic characteristics of the tested drugs in mice.
A clear solution of the test compound was injected into C57BL/6 mice via the tail vein (overnight fasting, 7-10 weeks old), and the test compound was intragastrically administered to C57BL/6 mice (overnight fasting, 7-10 weeks old). 30 μL of the blood was collected from the jugular vein or the tail vein of the animals 0.0833, 0.25, 0.5, 1, 2, 4, 6, 8 and 24 hours after administration, and placed in the anticoagulant tube containing EDTA-K2, followed by centrifugation at 4° C. for 15 minutes to collect the plasma. The plasma concentration was determined by LC-MS/MS. The pharmacokinetic parameters were calculated by the non-compartment model linear logarithmic trapezoidal method using WinNonlin™ Version 6.3 (Pharsight, Mountain View, Calif.) pharmacokinetic software.

[3] = ASK1 enzyme activity, class symbols, read-out: IC50 value
[4] = recombinant human full length GST-tagged ASK1 20 nM, MBP 20 μM, 33P-ATP, 2 hours room temperature, read-out: IC50

Sequence of ASK1/MAP3K5 (Q99683 whole entry): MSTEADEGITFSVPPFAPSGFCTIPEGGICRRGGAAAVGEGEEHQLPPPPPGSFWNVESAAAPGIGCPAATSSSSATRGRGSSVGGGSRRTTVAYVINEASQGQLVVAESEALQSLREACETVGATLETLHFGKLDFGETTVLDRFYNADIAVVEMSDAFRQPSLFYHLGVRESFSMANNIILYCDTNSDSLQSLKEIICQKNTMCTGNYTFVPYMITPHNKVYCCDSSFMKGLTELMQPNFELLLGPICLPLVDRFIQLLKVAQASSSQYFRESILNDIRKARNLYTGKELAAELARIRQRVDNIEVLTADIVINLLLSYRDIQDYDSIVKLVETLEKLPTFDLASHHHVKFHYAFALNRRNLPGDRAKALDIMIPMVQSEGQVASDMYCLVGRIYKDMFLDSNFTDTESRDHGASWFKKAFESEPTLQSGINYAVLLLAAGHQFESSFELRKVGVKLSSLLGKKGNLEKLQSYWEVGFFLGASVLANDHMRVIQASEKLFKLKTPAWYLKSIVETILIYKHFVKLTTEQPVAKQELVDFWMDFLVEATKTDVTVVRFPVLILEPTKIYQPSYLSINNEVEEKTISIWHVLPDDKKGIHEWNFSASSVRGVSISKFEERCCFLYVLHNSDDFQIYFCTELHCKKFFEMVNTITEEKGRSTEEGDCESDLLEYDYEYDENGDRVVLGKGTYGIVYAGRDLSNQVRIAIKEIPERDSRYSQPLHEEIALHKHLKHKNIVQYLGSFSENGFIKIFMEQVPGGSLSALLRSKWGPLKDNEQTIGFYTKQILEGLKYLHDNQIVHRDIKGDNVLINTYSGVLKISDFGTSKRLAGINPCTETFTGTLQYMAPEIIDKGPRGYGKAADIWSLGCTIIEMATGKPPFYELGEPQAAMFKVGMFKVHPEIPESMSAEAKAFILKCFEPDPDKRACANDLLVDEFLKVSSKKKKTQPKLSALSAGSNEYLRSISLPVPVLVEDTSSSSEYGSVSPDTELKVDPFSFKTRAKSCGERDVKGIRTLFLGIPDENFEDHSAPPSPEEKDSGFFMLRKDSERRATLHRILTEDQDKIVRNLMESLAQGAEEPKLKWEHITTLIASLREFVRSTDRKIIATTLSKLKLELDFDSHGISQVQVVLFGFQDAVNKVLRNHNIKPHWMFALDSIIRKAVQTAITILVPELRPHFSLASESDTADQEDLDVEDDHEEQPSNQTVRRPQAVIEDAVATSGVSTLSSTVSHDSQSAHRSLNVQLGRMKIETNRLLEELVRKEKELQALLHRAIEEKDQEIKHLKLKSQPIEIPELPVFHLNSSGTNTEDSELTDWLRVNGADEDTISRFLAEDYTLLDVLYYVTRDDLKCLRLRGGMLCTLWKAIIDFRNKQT

| SMILES | IC50 [1, 3] [nM] | IC50 [1, 4] [nM] | Exposure ([2]; intravenous or oral (intragastric) administration) [µM·h] | bioavailability ([2]; mouse, intragastric vs intravenous administration) [%] |
| --- | --- | --- | --- | --- |
| Cc1cc(F)c(C(=O)Nc2cccc(-c3nnc4n3CCCC4)n2)cc1-n1cc(C2CC2)nn1 [WX003] | > 100 | 943 |  |  |
| Cc1cc(F)c(C(=O)Nc2cccc(-c3nnc4n3CCCC4)n2)cc1-n1nnc(C2CC2)n1 [WX004] | > 100 | > 1000 |  |  |
| Cc1cc(F)c(C(=O)Nc2cccc(-c3nnc4n3CCCC4)n2)cc1-n1cnc(C2CC2)n1 [WX005] | ≤ 100 | 35.3 |  |  |
| O=C(Nc1cccc(-c2nnc3n2CCCC3)n1)c1cc(-n2cnc(C3CC3)c2)c(O)cc1F [WX008] |  | 5.44 |  |  |
| O=C(Nc1cccc(-c2nnc3n2CCCC3)n1)c1cc(-n2cnc(C3CC3)c2)c(OCC2COC2)cc1F [WX011] |  | 7.61 |  |  |
| O=C(Nc1cccc(-c2nnc3n2CCCC3)n1)c1cc(-n2cnc(C3CC3)c2)c(OCCCF)cc1F [WX013] |  | 7.93 |  |  |
| CN(C)c1cc(F)c(C(=O)Nc2cccc(-c3nnc4n3CCCC4)n2)cc1-n1cnc(C2CC2)c1 [WX014] |  | 10.7 |  |  |
| O=C(Nc1cccc(-c2nnc3n2CCCC3)n1)c1cc(-n2cnc(C3CC3)c2)c(N2CCOCC2)cc1F [WX015] |  | 10.1 |  |  |
| Cc1cc(F)c(C(=O)Nc2cccc(-c3nnc4n3CCCC4O)n2)cc1-n1cnc(C2CC2)c1 (stereo not shown) [WX016] |  | 4.12 |  |  |

The remaining compounds from weak to strong by IC50 [1, 4], led by results:

| IC50 [1, 3] [nM] | IC50 [1, 4] [nM] | Exposure ([2]; intravenous or oral (intragastric) administration) [µM·h] | bioavailability ([2]; mouse, intragastric vs intravenous administration) [%] | SMILES |
| --- | --- | --- | --- | --- |
|  | 19.2 |  |  | O=C(Nc1cccc(-c2nnc3n2CCCC3)n1)c1cc(-n2cnc(C3CC3)c2)c(-c2cccnc2)cc1F [WX006] |
|  | 16.6 |  |  | COCCOc1cc(F)c(C(=O)Nc2cccc(-c3nnc4n3CCCC4)n2)cc1-n1cnc(C2CC2)c1 [WX007] |
|  | 7.2 |  |  | CC1(COc2cc(F)c(C(=O)Nc3cccc(-c4nnc5n4CCCC5)n3)cc2-n2cnc(C3CC3)c2)COC1 [WX010] |
|  | 7.04 |  |  | O=C(Nc1cccc(-c2nnc3n2CCCC3)n1)c1cc(-n2cnc(C3CC3)c2)c(OCCF)cc1F [WX012] |
| ≤ 100 | 5.6 | 408.566 | 156 | Cc1cc(F)c(C(=O)Nc2cccc(-c3nnc4n3CCCC4)n2)cc1-n1cnc(C2CC2)c1 [WX002] |
| ≤ 100 | 1.82 |  |  | Cc1cc(F)c(C(=O)Nc2cccc(-c3nnc4n3CCC4)n2)cc1-n1cnc(C2CC2)c1 [WX001] |
